Laboratory results published in ChEMBL document CHEMBL5241078, “Emerging trends of receptor-mediated tumor targeting peptides: A review with perspective from molecular imaging modalities” (Eur J Med Chem, 2021).

Molecular target: T1, Gastrin/cholecystokinin type B receptor (Homo sapiens, UniProt P32239)
T1 sequence (P32239 whole entry): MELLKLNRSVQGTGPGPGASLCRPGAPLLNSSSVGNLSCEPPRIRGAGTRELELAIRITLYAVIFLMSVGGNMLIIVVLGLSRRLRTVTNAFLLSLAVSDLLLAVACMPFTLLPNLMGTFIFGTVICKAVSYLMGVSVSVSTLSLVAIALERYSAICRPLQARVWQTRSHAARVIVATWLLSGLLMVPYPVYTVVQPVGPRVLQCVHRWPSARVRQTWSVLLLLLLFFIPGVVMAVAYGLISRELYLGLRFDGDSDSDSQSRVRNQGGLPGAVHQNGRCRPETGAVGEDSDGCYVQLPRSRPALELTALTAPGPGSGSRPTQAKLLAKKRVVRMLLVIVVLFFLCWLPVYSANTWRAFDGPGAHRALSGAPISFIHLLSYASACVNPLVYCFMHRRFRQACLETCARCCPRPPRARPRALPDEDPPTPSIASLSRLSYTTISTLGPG
Assay: Binding affinity to human CCK2R expressed in human A-431 cells
Type: cell-based

SMILES | IC50
CSCCC[C@H](NC(=O)[C@H](Cc1c[nH]c2ccccc12)NC(=O)[C@H]1CCCCNC(=O)[C@H](NC(=O)c2ccc(NN)nc2)CCC(=O)N[C@@H](C)C(=O)N[C@@H](Cc2ccc(O)cc2)C(=O)N1)C(=O)N[C@@H](CC(=O)O)C(=O)N[C@@H](Cc1ccccc1)C(N)=O | 2.54 nM
CCCCC[C@H](NC(=O)[C@H](Cc1c[nH]c2ccccc12)NC(=O)[C@H]1CCCCNC(=O)[C@H](NC(=O)c2ccc(NN)nc2)CCC(=O)N[C@@H](C)C(=O)N[C@@H](Cc2ccc(O)cc2)C(=O)N1)C(=O)N[C@@H](CC(=O)O)C(=O)N[C@@H](Cc1ccccc1)C(N)=O | 3.23 nM
